The source of these data is PubChem BioAssay AID2254 (The Scripps Research Institute Molecular Screening Center, 2010).

This experiment concerns the target Serine hydrolase RBBP9 (Homo sapiens) (UniProt O75884). As to the kind of experiment: RBBP9 hydrolase inhibition, IC50 by ABPP – biochemical, gel-based ABPP, late-stage follow-up (AID 2254). The note with it: fluorophosphonate probe labeling of RBBP9.

One may read the IC50 as the point on the concentration scale where inhibition reaches its midpoint.

Each structure is given as a SMILES string.

Chain of Serine hydrolase RBBP9 (Homo sapiens) (O75884 whole entry, looked up): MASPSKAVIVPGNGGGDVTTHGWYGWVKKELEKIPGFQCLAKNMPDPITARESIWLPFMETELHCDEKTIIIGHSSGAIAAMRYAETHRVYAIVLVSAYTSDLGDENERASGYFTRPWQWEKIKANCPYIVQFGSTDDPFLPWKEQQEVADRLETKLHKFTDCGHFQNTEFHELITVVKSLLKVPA

`C/C(=N\OC(=O)C1CCCCC1)c1nccs1`: the IC50 is 0.635 µM.

Regarding `C/C(=N\OC(=O)c1ccc(Cl)cc1)c1nccs1`, the IC50 was 1.9 µM.

For the molecule `COc1ccc(C(=O)O/N=C(\C)c2nccs2)cc1`, the IC50 was 9.1 µM.

`C/C(=N\OC(=O)c1ccc(F)cc1)c1nccs1`: the IC50 is 5.7 µM.
